According to patent US9527807B2, “Sulfonamide derivative and use thereof” (Takeda Pharmaceutical Company Limited, priority 2011, dated 2016):

The compounds below were run against T1, AMPA receptor (human GluR1 flip/stargazin expressed in CHO-K1 cells) (Homo sapiens, UniProt P42261) (assay: AMPA receptor function enhancing activity using calcium influx as index). Conditions: change in fluorescence level in 3 min, 100% = 3 mM glutamic acid + 300 μM cyclothiazide, 0% = 3 mM glutamic acid only.
T1 construct: expressed in transfected cells; host or cells: CHO-K1
T1 sequence (P42261 19-906 isoform P42261-2 limits assumed): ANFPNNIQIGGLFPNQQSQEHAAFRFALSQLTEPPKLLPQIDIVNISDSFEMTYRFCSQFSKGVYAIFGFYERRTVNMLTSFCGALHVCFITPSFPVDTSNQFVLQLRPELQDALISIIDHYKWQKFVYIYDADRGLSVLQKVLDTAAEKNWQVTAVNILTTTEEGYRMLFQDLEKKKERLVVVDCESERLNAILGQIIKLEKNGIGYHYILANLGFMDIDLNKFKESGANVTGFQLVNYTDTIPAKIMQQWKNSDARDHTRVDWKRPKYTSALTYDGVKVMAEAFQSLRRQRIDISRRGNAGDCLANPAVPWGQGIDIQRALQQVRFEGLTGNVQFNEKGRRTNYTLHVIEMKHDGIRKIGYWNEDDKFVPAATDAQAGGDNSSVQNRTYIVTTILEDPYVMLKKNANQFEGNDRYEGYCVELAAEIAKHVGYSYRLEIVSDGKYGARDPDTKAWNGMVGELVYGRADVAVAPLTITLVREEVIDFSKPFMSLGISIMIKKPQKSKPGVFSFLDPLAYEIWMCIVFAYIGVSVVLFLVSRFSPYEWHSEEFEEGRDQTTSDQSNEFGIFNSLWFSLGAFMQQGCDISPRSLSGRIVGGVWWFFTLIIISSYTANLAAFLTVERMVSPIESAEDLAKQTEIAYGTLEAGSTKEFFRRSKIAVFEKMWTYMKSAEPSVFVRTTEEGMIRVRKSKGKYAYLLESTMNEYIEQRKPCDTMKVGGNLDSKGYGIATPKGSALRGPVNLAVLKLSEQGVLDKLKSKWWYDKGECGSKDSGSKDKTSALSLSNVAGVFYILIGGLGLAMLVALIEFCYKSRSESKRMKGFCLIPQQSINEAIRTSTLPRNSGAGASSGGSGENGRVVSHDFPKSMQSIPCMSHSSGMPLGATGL
T1 sequence (Q9Y698 whole entry partner): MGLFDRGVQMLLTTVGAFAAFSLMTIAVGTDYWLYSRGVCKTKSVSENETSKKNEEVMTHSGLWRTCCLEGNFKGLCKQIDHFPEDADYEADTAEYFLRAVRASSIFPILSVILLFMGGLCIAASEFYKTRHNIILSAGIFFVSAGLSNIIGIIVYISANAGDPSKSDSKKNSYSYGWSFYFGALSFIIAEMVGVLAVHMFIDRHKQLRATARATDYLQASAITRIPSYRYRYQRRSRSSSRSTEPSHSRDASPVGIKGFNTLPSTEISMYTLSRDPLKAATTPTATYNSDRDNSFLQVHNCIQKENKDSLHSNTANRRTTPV
Format: cell-based
Method in brief: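 CHO-K1 cells co-expressing human GluR1 flip and stargazin, Calcium 4 dye with 1.25 mM probenecid; compound added with glutamate (3 mM final), fluorescence change over 3 min. Activity (%) scaled between 3 mM glutamate alone (0%) and glutamate plus 300 μM cyclothiazide (100%).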

How did the “activity (%)” value turn out when CCS(=O)(=O)N[C@H]1CCCC[C@@H]1COc1ccc(C(C)C)cc1 [Example 13, N-[(1S,2S)-2-{[4-(1-methylethyl)phenoxy]methyl}cyclohexyl]ethanesulfonamide] was run?
The value was 81%.

CS(=O)(=O)N[C@H]1CCCO[C@@H]1COc1ccc(C2CC2)cc1 (racemic) [Example 5, 1,5-anhydro-6-O-(4-cyclopropylphenyl)-2,3,4-trideoxy-4-[(methylsulfonyl)amino]-DL-erythrohexitol] was tested. Which “activity (%)” value did it give?
The value was 78%.

CCS(=O)(=O)N[C@H]1CCC(F)(F)C[C@@H]1COc1ccc(-n2nccc2C)cc1 (relative stereo) [Example 143, trans-N-[4,4-difluoro-2-{[4-(5-methyl-1H-pyrazol-1-yl)phenoxy]methyl}cyclohexyl]ethanesulfonamide] was tested. Which “activity (%)” value did it give?
Its value is 42%.

How did the “activity (%)” value turn out when CCS(=O)(=O)N[C@H]1CCOC[C@@H]1COc1ccc(C(C)=O)c(F)c1 (relative stereo) [Example 131, trans-N-{3-[(4-acetyl-3-fluorophenoxy)methyl]tetrahydro-2H-pyran-4-yl}ethanesulfonamide] was run?
Its value is 89%.

For CCS(=O)(=O)N[C@H]1CCOC[C@@H]1COc1ccc(C2CC2)cc1 (relative stereo) [Example 7, trans-N-{3-[(4-cyclopropylphenoxy)methyl]tetrahydro-2H-pyran-4-yl}ethanesulfonamide], which “activity (%)” value is on record?
The value was 91%.

Which “activity (%)” value does the source give for CCS(=O)(=O)N[C@H]1CCOC[C@@H]1COc1ccc(-c2cc(C)on2)c(F)c1 [Example 248, N-[(3R,4S)-3-{[3-fluoro-4-(5-methylisoxazol-3-yl)phenoxy]methyl}tetrahydro-2H-pyran-4-yl]ethanesulfonamide] here?
Its value is 87%.

For CCS(=O)(=O)N[C@H]1CCOC[C@@H]1COc1ccc(-n2cc(Cl)cn2)cc1 (relative stereo) [Example 140, trans-N-[3-{[4-(4-chloro-1H-pyrazol-1-yl)phenoxy]methyl}tetrahydro-2H-pyran-4-yl]ethanesulfonamide], which “activity (%)” value is on record?
The value was 90%.

How did the “activity (%)” value turn out when CS(=O)(=O)N[C@@H]1CCOC[C@H]1COc1ccc(-c2ccc(Cl)cn2)cc1F (single isomer, unassigned) [Example 266, N-[(3S,4R)-3-{[4-(5-chloropyridin-2-yl)-2-fluorophenoxy]methyl}tetrahydro-2H-pyran-4-yl]methanesulfonamide or N-[(3R,4S)-3-{[4-(5-chloropyridin-2-yl)-2-fluorophenoxy]methyl}tetrahydro-2H-pyran-4-yl]methanesulfonamide] was run?
Its value is 92%.

CCS(=O)(=O)N[C@H]1CCC(F)(F)C[C@@H]1COc1ccc(N2CCCC2=O)cc1 [Example 482, N-[(1S,2S)-4,4-difluoro-2-{[4-(2-oxopyrrolidin-1-yl)phenoxy]methyl}cyclohexyl] ethanesulfonamide] was tested. Which “activity (%)” value did it give?
Its value is 99%.

Cc1cnc(-c2ccc(OC[C@H]3COCC[C@@H]3NS(C)(=O)=O)cc2)s1 (racemic) [Example 333, N-[(3RS,4SR)-3-{[4-(5-methyl-1,3-thiazol-2-yl)phenoxy]methyl}tetrahydro-2H-pyran-4-yl]methanesulfonamide] was tested. Which “activity (%)” value did it give?
The value was 93%.

With CS(=O)(=O)N[C@H]1COCC[C@@H]1COc1ccc(-c2ncc(Cl)cn2)cc1 [Example 284, N-[(3R,4S)-4-{[4-(5-chloropyrimidin-2-yl)phenoxy]methyl}tetrahydro-2H-pyran-3-yl]methanesulfonamide] as the compound, how does the “activity (%)” value read?
The value was 92%.

Which “activity (%)” value does the source give for CCS(=O)(=O)N[C@H]1CCCC[C@@H]1COc1ccc(C2COC2)cc1 (relative stereo) [Example 43, trans-N-{2-[(4-oxetan-3-ylphenoxy)methyl]cyclohexyl}ethanesulfonamide] here?
The value was 86%.

With CS(=O)(=O)N[C@H]1COCC[C@@H]1COc1ccc(-n2cc(Cl)cn2)cc1 [Example 206, N-[(3R,4S)-4-{[4-(4-chloro-1H-pyrazol-1-yl)phenoxy]methyl}tetrahydro-2H-pyran-3-yl]methanesulfonamide] as the compound, how does the “activity (%)” value read?
Its value is 74%.
